Earlier results as cited in patent publication EP2837390A1, “Combined Pharmaceutical Preparation for Use in Treating Neuromuscular Disorders” (Universitäts-Kinderspital beider Basel, priority 2013, dated 2015).

System: mdx mice model
Conditions: long term supplementation for 17-months

In the case of `N=C(N)NCCC[C@H](N)C(=O)O` [L-arginine], the muscle fibrosis is given as “increased”, the muscle function is given as “worsened” and the skeletal deformities is given as “increased”.
